Source: US7728146B2, “Enzyme inhibitors” (Probiodrug AG, priority 2006, dated 2010)

Legend:
DPII = DPII (Homo sapiens, UniProt Q9UHL4); assay: DPII assay; assay type: biochemical; conditions: for Selectivity DPII(IC50)/DPIV(Ki): ratio IC50 DPII / Ki DP IV
Method: Determination of IC50 values for DPII and DP9 are done similarly as described for DP IV.
For DPII instead of the HEPES buffer a 0.2 M sodium acetate buffer pH 5.5 is used. As substrate Gly-Pro-AMC is used in a final concentration of 1 mM.

[1] = test system: liver cell carcinoma cell line Hep-G2; assay: Cytotoxicity screening and LD50 determination on Hep-G2 (LDH, CytoTox-One); assay type: cell-based; conditions: for Cytotox 100 μM (%) HEPG2 / Viability 100 μM (%) HEP-G2: 24 h; for Cytotox 100 μM (%) HEPG2: LDH activity in cell culture media, lysed untreated cells = 100%; for Viability 100 μM (%) HEP-G2: LDH of lysed cells, untreated control = 100%; for Cytotox 100 μM (%) HEPG2 / Viability 100 μM (%) HEP-G2 / Observed cytotox: 100 μM; for Observed cytotox: Hep-G2, observation of the cells; for LD50 Viability HEP-G2 / LD50 cytotox HEP-G2: 8 serial dilutions, highest concentration 1 mM
Outline: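 Hep-G2 cells (50 000/well) precultured 24 h, then compound in DMSO (final 1%) added for 24 h. Screen at 100 μM, 2 μM, 40 nM in triplicate. LDH in medium gave cytotoxicity (untreated 0%, lysed 100%); LDH of lysed cells gave viability. LD50 from 8 serial dilutions, top 1 mM.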

[2] = test system: neuroblastoma cell line SY5Y; assay: LD50 determination on SY5Y (LDH); assay type: cell-based; conditions: 8 serial dilutions, highest concentration 1 mM
Method: After 24 h of cultivation in a 96 well plate (50 000 cells/well) compounds (dissolved in DMSO) are added and cytotoxicity and vitality of the cells are analysed after another 24 h of cultivation using the CytoTox-One Homogenoeous membrane toxicity assay (Promega).
For cytotoxicity the LDH activity in the cell culture media after 24 h of incubation are analysed. The untreated control is set to 0% cytotoxicity. For the 100% value LDH activity of lysed untreated cells are analysed.
For viability cell culture media are removed from the cells and all cells are lysed using the lysis buffer. LDH activity is determined and untreated control is set to 100% viability.
For determination of LD50 the liver carcinoma cell line HEP-G2 and the neuroblastoma cell line SY5Y may be used. The effect of 8 serial dilutions of the compounds (highest concentration 1 mM) is investigated as described above.

Caco-2 transport assay = assay type: in vitro ADME, human; conditions: human, Caco-2, pH 7.5; for Papp A→B: apical to basal; for Papp B→A: basal to apical
Method: (§1) The concentration of compounds in the Caco experiments may be determined from their potency to inhibit recombinant human DP IV.
(§2) Reaction is started by addition of 20 μl rhDP IV and release of pNA was monitored at 405 nm. Samples are analyzed in several dilutions (undiluted, 1:10, 1:[…]). Dilutions are done in the Caco assay buffer. Activity measured with Caco-assay buffer alone is set to 100% and inhibitor concentration is calculated from the dilutions resulting in 20 to 80% inhibition according to the equation for competitive inhibition.
(§3) [formula] • I=inhibitor concentration • v0=velocity of the reaction without inhibitor (Caco assay buffer alone) • vi=velocity of the reaction with inhibitor sample • Ki=Ki-value of the compound • DF=dilution factor of the sample Transport Assay
(§4) The human colon adenocarcinome cell line Caco-2 are grown in 6- or 24-transwell microplates (Costar) for 21 days with MEM-alpha containing 10% FBS and 0.5% Gentamycin (Invitrogen). After 21 days of cultivation integrity of the cell layer are assessed by measurement of the transepitelial electrical resistance.
(§5) Transport measurements are carried out in triplicates at a pH of 7.5. For each compound and direction (apical to basal (a-b), basal to apical (b-a)) two separate experiments are done. Samples are collected from the donor and acceptor compartments at the beginning of the experiment and after 60 min (for 6-well plates, Donor at 0 and 120 min, Acceptor at 15, 30, 60 and 120 min).
(§6) Samples are analyzed in several dilutions for their ability to inhibit human recombinant DP IV and compound concentrations may be calculated using the prior determined Ki-value (see above).
(§7) The permeability coefficient Papp is calculated according to the following equation:
(§8) [formula] • VA=Volume of the acceptor compartment • A=Area of the transwell membrane • t=sampling time • cAt=concentration in the acceptor compartment at sampling time • CDO=concentration in the donor compartment at t=0
(§9) Papp-values>1e-5 cm/s are assessed as good permeable, value<1e-6 cm/s as not permeable. Papp-values in between as medium permeable. Compounds where no significant difference were found between a-b and b-a transport are assessed to be passive transported.

Caco-2 monolayer = assay: Caco-2 transport assay; assay type: in vitro ADME, human; conditions: assessment of permeability and transport type
Method: as §1, §2, §3, §4, §5, §6, §7, §8, §9

[3] = sodium acetate buffer pH 5.5, Gly-Pro-AMC 1 mM

SMILES | Selectivity DPII(IC50)/DPIV(Ki) (DPII) | IC50 (DPII; [3]) [µM] | Cytotox 100 μM (%) HEPG2 [1] [%] | Viability 100 μM (%) HEP-G2 [1] [%] | Observed cytotox [1] [% spheric] | LD50 Viability HEP-G2 [1] [mM] | LD50 cytotox HEP-G2 [1] [mM] | LD50 Viability SY5Y [2] [mM] | LD50 cytotox SY5Y [2] [mM] | Papp A→B (Caco-2 transport assay) [×10⁻⁶ cm/s] | Papp B→A (Caco-2 transport assay) [×10⁻⁶ cm/s] | Transport (Caco-2 monolayer) | IC50 (DPII; values >1e−4 are extrapolated values) [µM] | Ki (DPII) [µM]
NCc1c(-c2ccc(Cl)cc2Cl)ncn1Cc1ccccc1 [Example 24b, (1-benzyl-4-(2,4-dichlorophenyl)-1H-imidazol-5-yl)methanamine] | 6,329 | 30 | 5.9 | 119.2 | 10 | 0.20 | 0.18 | 0.11 | 0.19 | 37.5 | 41.7 | good, passive | – | –
NCc1c(-c2ccc(Cl)cc2Cl)ncn1Cc1ccccn1 [Example 39b] | >176,056 | > 100 | 3.9 | 115.7 | 20 | 0.80 | 0.74 | 0.29 | 0.60 | 40.6 | 42.5 | good, passive | – | –
NCc1c(-c2ccc(Cl)cc2Cl)ncn1Cc1cccnc1 [Example 121b, (4-(2,4-dichlorophenyl)-1-((pyridin-3-yl)methyl)-1H-imidazol-5-yl)methanamine] | 41,216 | – | 0 | 104.0 | – | 1.05 | 0.92 | 0.46 | 0.68 | 36.4 | 40.4 | good, passive | 122 | –
NCc1c(-c2ccc(Cl)cc2Cl)ncn1Cc1ccsc1 [Example 130b, (4-(2,4-dichlorophenyl)-1-((thiophen-3-yl)methyl)-1H-imidazol-5-yl)methanamine] | 186 | 1.43 | – | – | – | 0.24 | 0.21 | 0.17 | 0.28 | 40 | 31.2 | good, passive | – | 3.84
